Assay results from publication PMC9505425, “Targeting of the Mitochondrial TET1 Protein by Pyrrolo[3,2-b]pyrrole Chelators” (International Journal of Molecular Sciences, 2022).
Where “and” joins values, the source holds several entries; their conditions need not be identical. Identical values can stand only once.

Tests used:
[1] = MTT cytotoxicity assay, HF-P4; assay type: cell-based, human; settings: human, HF-P4 normal human dermal fibroblasts, repeats, read-out: Cell viability %
Description: (§1) The effects of the tested compounds 1–6 on HF-P4, U-118 MG, H1299, BT-20, and Caov-3 cell lines were evaluated by the MTT assay during 48 h treatment (Table 2 and Tables S2–S31). In all tested compounds, we recognized a difference in cytotoxicity between healthy cells (HF-P4) and cancer cell lines (BT-20, Caov-3, and H-1299). […] In the case of ovarian cancer, the authors discovered oncogenic and poor prognosis roles of TET1 in epithelial ovarian carcinoma (EOC). TET1 is believed to demethylate the epigenome and activate numerous oncogenic pathways in EOC. The aforementioned study presents a new mechanism where TET1 contributes to tumor development through collaboration with CK2α [21]. The overexpression of the TET1 protein was also found in triple negative breast cancer and was associated with an activation of PI3K/mTOR pathway and decreased overall survival.
(§2) A human dermal fibroblast cell line was used for intracellular localization and cytotoxicity assay (MTT). Human fibroblast cells HF-P4 (human fibroblasts—patient 4) are normal dermal fibroblasts, which were obtained from the residual skin of a healthy patient who underwent plastic surgery (with informed consent of the patient). HF-P4 cell lines were obtained from the Department of Plastic Surgery, Third Faculty of Medicine, Charles University and University Hospital Královské Vinohrady, Prague, Czech Republic, as described by Szabo et al., 2011, and Dvořánková et al., 2019 [88, 89], and have been processed in accordance with the relevant local ethics committee and the Declaration of Helsinki protection of patients’ rights and benefits with written and signed informed consent of each patient. Cells were cultivated under standard conditions in Dulbecco’s modified Eagle’s medium (ATCC, Manassas, VA, USA), supplemented with 10% FBS and streptomycin (100 μg/mL) at 37 °C at a 5% CO2 atmosphere.
(§3) For the cytotoxicity assay, we used the following cell lines: human glioblastoma cell line U118-MG, human mammary gland/breast cell line BT-20, human ovary adenocarcinoma cell line Caov-3, and non-small-cell lung carcinoma H-1299. As previously mentioned, these cell lines contain a high level of the TET1 protein, which corresponds to a lower overall survival. In addition to these cell cultures, we used the human dermal fibroblast cell line HF-P4 as a healthy control. Determination of cytotoxicity was performed using the MTT [3-(4,5-dimethylthiazol-2-yl)-2,5-diphenyltetrazolium bromide] colorimetric assay. Viable cells from each cell line were cultured in 96-well plates (VWR, Stříbrná Skalice, Czech Republic) at a density of 1.0 × 10^5 cells per well and allowed to grow for 24 h in 200 μL of recommended medium. After a 1-day incubation, the medium was replaced with solutions of compounds 1–6 at concentration ranges of 0.1–20 μM. Each concentration was measured four times within one test, and the entire test was repeated three times. Tested compounds 1–6 were dissolved in DMSO and then diluted with corresponding medium to a final volume of 200 μL (maximum 1% DMSO). After 48 h exposure, cells were treated with 175 μL of MTT solution (P-LAB, Prague, Czech Republic) for 2 h. In the next step, MTT solution was removed, and 125 μL of DMSO (Penta, Prague, Czech Republic) was added to solubilize dark crystals of formazan formed in intact cells, and absorbance was measured at 570 nm by the enzyme-linked immunoabsorbent assay reader Infinite® 200 PRO (Tecan, Männedorf, Switzerland). The final DMSO concentration was smaller than 1% (v/v). The absorbance of untreated cells was considered 100%, and IC50 values were calculated by the GraphPad Prism 8 software. As a parameter for cytotoxicity, we used a concentration that inhibits 50% of cell growth (IC50).

HF-P4 cells = test: MTT cytotoxicity assay, HF-P4; assay type: cell-based, human; settings: 48 h; for Cell viability %: repeats
Description: as §1, §2, §3

H-1299 cells = test: MTT cytotoxicity assay, H-1299; assay type: cell-based, human; settings: Homo sapiens
Description: as §1
A human glioblastoma cell line (U118-MG) and a human non-small-cell lung carcinoma cell line (H1299) were used for the cytotoxicity assay (MTT). Both cell lines were generously supplied by Dr. M. Masařik, PhD, Department of Pathological physiology, Masaryk University, Czech Republic. U118-MG cells were cultivated under standard conditions in Dulbecco’s modified Eagle’s medium (ATCC, Manassas, VA, USA) supplemented with 10% FBS and streptomycin (100 μg/mL) at 37 °C at a 5% CO2 atmosphere. H1299 cells were cultivated under standard conditions in RPMI 1640 (BioTech, Prague, Czech Republic) medium supplemented with 10% FBS and streptomycin (100 μg/mL) at 37 °C at a 5% CO2 atmosphere.
as §3

Caov-3 cells = test: MTT cytotoxicity assay, Caov-3; assay type: cell-based, human
Description: as §1
The human ovary adenocarcinoma cell line (Caov-3), purchased from ATCC (Caov-3 (ATCC® HTB-75™), Manassas, VA, USA), was used for the cytotoxicity assay (MTT). Caov-3 cells were cultivated under standard conditions in Dulbecco’s modified Eagle’s medium (ATCC, Manassas, VA, USA) supplemented with 10% FBS and streptomycin (100 μg/mL) at 37 °C at a 5% CO2 atmosphere.
as §3

Which viability at 48 h, 0.1 µM ([1]; HF-P4, 100 nM) does the source give for `COc1cccc(/C=N/NC(=O)c2ccc(-c3cc4c(cc(-c5ccc(C(=O)N/N=C/c6cccc(OC)c6O)cc5)n4-c4ccc(C)cc4)n3-c3ccc(C)cc3)cc2)c1O` [Compound 5] here?
Its viability at 48 h, 0.1 µM is 104%.

And the viability at 48 h, 0.5 µM ([1]; HF-P4, 500 nM)?
The viability at 48 h, 0.5 µM was 105%.

What about the viability at 48 h, 0.75 µM ([1]; HF-P4, 750 nM) of the same molecule?
The viability at 48 h, 0.75 µM was 84.2%.

What about the viability at 48 h, 1 µM ([1]; HF-P4, 1 uM) of the same molecule?
The viability at 48 h, 1 µM was 105%.

And the viability at 48 h, 2.5 µM ([1]; HF-P4, 2.5 uM)?
The viability at 48 h, 2.5 µM was 96.8%.

What about the viability at 48 h, 5 µM ([1]; HF-P4, 5 uM) of the same molecule?
The viability at 48 h, 5 µM was 84%.

What about the viability at 48 h, 7.5 µM ([1]; HF-P4, 7.5 uM) of the same molecule?
Its viability at 48 h, 7.5 µM is 74.5%.

And the viability at 48 h, 10 µM ([1]; HF-P4, 10 uM)?
Its viability at 48 h, 10 µM is 76.7%.

What about the viability at 48 h, 15 µM ([1]; HF-P4, 15 uM) of the same molecule?
Its viability at 48 h, 15 µM is 63%.

What about the viability at 48 h, 20 µM ([1]; HF-P4, 20 uM) of the same molecule?
Its viability at 48 h, 20 µM is 52.2%.

And the Cell viability % (HF-P4 cells; HF-P4, 100 nM, 0.1 µM)?
Its Cell viability % is 105.3072% and 105.0738%.

And the Cell viability % (HF-P4 cells; HF-P4, 500 nM, 0.5 µM)?
Its Cell viability % is 98.21% and 101.0423%.

And the Cell viability % (HF-P4 cells; HF-P4, 750 nM, 0.75 µM)?
Its Cell viability % is 95.79% and 102.0649%.

What about the Cell viability % (HF-P4 cells; HF-P4, 1 uM, 1 µM) of the same molecule?
Its Cell viability % is 86.8% and 100.59%.

What about the Cell viability % (HF-P4 cells; HF-P4, 2.5 uM, 2.5 µM) of the same molecule?
The Cell viability % was 91.7616% and 90.46%.

What about the Cell viability % (HF-P4 cells; HF-P4, 5 uM, 5 µM) of the same molecule?
Its Cell viability % is 65.3% and 72.65%.

And the Cell viability % (HF-P4 cells; HF-P4, 7.5 uM, 7.5 µM)?
Its Cell viability % is 71.79% and 64.35%.

What about the Cell viability % (HF-P4 cells; HF-P4, 10 uM, 10 µM) of the same molecule?
Its Cell viability % is 58.3808% and 56.93%.

What about the Cell viability % (HF-P4 cells; HF-P4, 15 uM, 15 µM) of the same molecule?
The Cell viability % was 60.12% and 45.66%.

And the Cell viability % (HF-P4 cells; HF-P4, 20 uM, 20 µM)?
The Cell viability % was 55.03% and 53.24%.

What about the IC50 (HF-P4 cells; Homo sapiens, MTT) of the same molecule?
The IC50 was > 20 µM.

And the viability at 0.1 µM (H-1299 cells; NCI-H1299, 48 h, H-1299, 100 nM, repeats, read-out: Cell viability %)?
The viability at 0.1 µM was 113%.

What about the viability at 0.5 µM (H-1299 cells; NCI-H1299, 48 h, H-1299, 500 nM, repeats, read-out: Cell viability %) of the same molecule?
Its viability at 0.5 µM is 125%.

And the viability at 2.5 µM (H-1299 cells; NCI-H1299, 48 h, H-1299, 2.5 uM, repeats, read-out: Cell viability %)?
Its viability at 2.5 µM is 106%.

And the viability at 5 µM (H-1299 cells; NCI-H1299, 48 h, H-1299, 5 uM, repeats, read-out: Cell viability %)?
Its viability at 5 µM is 85.7%.

What about the viability at 7.5 µM (H-1299 cells; NCI-H1299, 48 h, H-1299, 7.5 uM, repeats, read-out: Cell viability %) of the same molecule?
The viability at 7.5 µM was 56.6%.

What about the viability at 10 µM (H-1299 cells; NCI-H1299, 48 h, H-1299, 10 uM, repeats, read-out: Cell viability %) of the same molecule?
The viability at 10 µM was 47.9%.

And the viability at 15 µM (H-1299 cells; NCI-H1299, 48 h, H-1299, 15 uM, repeats, read-out: Cell viability %)?
The viability at 15 µM was 46.5%.

What about the viability at 20 µM (H-1299 cells; NCI-H1299, 48 h, H-1299, 20 uM, repeats, read-out: Cell viability %) of the same molecule?
The viability at 20 µM was 31.4%.

And the IC50 (H-1299 cells; NCI-H1299, MTT, 48 h)?
Its IC50 is 10.1 µM.

And the melting point?
The melting point was 321 to 322 °C.

What about the Cell viability % (Caov-3 cells; Caov-3, 100 nM, 48 h, repeats, 0.1 µM) of the same molecule?
Its Cell viability % is 124.7159% and 131.0561% and 82.4%.

And the Cell viability % (Caov-3 cells; Caov-3, 500 nM, 48 h, repeats, 0.5 µM)?
Its Cell viability % is 90.56% and 116.6807% and 137.4211%.

And the Cell viability % (Caov-3 cells; Caov-3, 750 nM, 48 h, repeats, 0.75 µM)?
Its Cell viability % is 97.72% and 117.0859% and 120.9681%.

What about the Cell viability % (Caov-3 cells; Caov-3, 1 uM, 48 h, repeats, 1 µM) of the same molecule?
Its Cell viability % is 115.5595% and 95.48% and 128.3145%.

And the Cell viability % (Caov-3 cells; Caov-3, 2.5 uM, 48 h, repeats, 2.5 µM)?
The Cell viability % was 106.339% and 69.34% and 79.185%.

And the Cell viability % (Caov-3 cells; Caov-3, 5 uM, 48 h, repeats, 5 µM)?
The Cell viability % was 81.63% and 70.92%.

And the Cell viability % (Caov-3 cells; Caov-3, 7.5 uM, 48 h, repeats, 7.5 µM)?
Its Cell viability % is 49.35% and 63.65%.

What about the Cell viability % (Caov-3 cells; Caov-3, 10 uM, 48 h, repeats, 10 µM) of the same molecule?
The Cell viability % was 41.31% and 47.33%.

And the Cell viability % (Caov-3 cells; Caov-3, 15 uM, 48 h, repeats, 15 µM)?
Its Cell viability % is 34.22% and 36.44%.

And the Cell viability % (Caov-3 cells; Caov-3, 20 uM, 48 h, repeats, 20 µM)?
The Cell viability % was 16.1941% and 14.83%.

And the viability at 5 µM (Caov-3 cells; Homo sapiens, Caov-3, 48 h, Caov-3, 5 uM, repeats, read-out: Cell viability %)?
Its viability at 5 µM is 83.6%.

What about the viability at 7.5 µM (Caov-3 cells; Homo sapiens, Caov-3, 48 h, Caov-3, 7.5 uM, repeats, read-out: Cell viability %) of the same molecule?
Its viability at 7.5 µM is 62.5%.

And the viability at 10 µM (Caov-3 cells; Homo sapiens, Caov-3, 48 h, Caov-3, 10 uM, repeats, read-out: Cell viability %)?
The viability at 10 µM was 29.5%.

What about the viability at 15 µM (Caov-3 cells; Homo sapiens, Caov-3, 48 h, Caov-3, 15 uM, repeats, read-out: Cell viability %) of the same molecule?
Its viability at 15 µM is 31.5%.

And the viability at 20 µM (Caov-3 cells; Homo sapiens, Caov-3, 48 h, Caov-3, 20 uM, repeats, read-out: Cell viability %)?
Its viability at 20 µM is 17.9%.

And the IC50 (Caov-3 cells; Homo sapiens, Caov-3, MTT, 48 h)?
Its IC50 is 9.48 µM.
